Test results from patent US10039843B2, “Paramagnetic solid lipid nanoparticles (pSLNs) containing metal amphiphilic complexes for MRI” (BRACCO IMAGING S.P.A., priority 2012, dated 2018).

Experiment: Relaxivity values of some known compounds for MRI (Table I)
Type: physicochemical
Settings: 0.47 T, 25° C., pH 7; for r1p HSA 4%: HSA 4% in NaCl 0.9%
Source text: As mentioned above, pSLNs usually show very high relaxivity in physiological medium, higher than values typically found in non-derivatized hydrophilic gadolinium complexes, in particular when formulated in SLNs, as better detailed in the experimental part for some representative compounds. As an example, relaxivity values for some Gd(III)complexes are indicated below, where values measured in physiologic conditions refer to those in obtained HSA 4% in NaCl 0.9%.

SMILES	r1p HSA 4%	r1p Human plasma (HP)	r1p Water
O=C([O-])CN1CCN(CC(=O)[O-])CCN([C@H](CO)[C@H](O)CO)CCN(CC(=O)[O-])CC1.[Gd+3] (racemic) [Gd-BT-DO3A, Gadobutrol]	4.31 mM⁻¹ s⁻¹	5.76 mM⁻¹ s⁻¹	3.75 mM⁻¹ s⁻¹
C[NH2+]C[C@H](O)[C@@H](O)[C@H](O)[C@H](O)CO.O=C([O-])CN1CCN(CC(=O)[O-])CCN(CC(=O)[O-])CCN(CC(=O)[O-])CC1.[Gd+3] [Gd-DOTA, Gadoterato meglumine [[1,4,7,10-tetraazacyclododecane-1,4,7,10-tetraacetate (4-)] gadolinate (1-)] meglumine]	4.11 mM⁻¹ s⁻¹	4.51 mM⁻¹ s⁻¹	3.61 mM⁻¹ s⁻¹
CC(O)CN1CCN(CC(=O)[O-])CCN(CC(=O)[O-])CCN(CC(=O)[O-])CC1.[Gd+3] (stereo not drawn) [Gd-HP-DO3A, Gadoteridol[10-(2-hydroxyprop-1-yl) -1,4,7,10-tetraazacyclododecane-1,4,7-triacetate(3-)] gadolinium]	3.85 mM⁻¹ s⁻¹	4.80 mM⁻¹ s⁻¹	3.32 mM⁻¹ s⁻¹
